Results published in ChEMBL document CHEMBL1158295, “Five new monotetrahydrofuran ring acetogenins from the leaves of Annona muricata” (J Nat Prod, 1996).
≈ marks a conversion by molar mass, not a printed value.

Columns and labels:
MIA PaCa-2 = assay: Cytotoxicity against human MIAPaCa2 cells; assay type: functional; conditions: read-out: ED50 (the source's name)
A498 = assay: Cytotoxicity against human A498 cells; assay type: functional; conditions: read-out: ED50 (the source's name)
A549 = assay: Cytotoxicity against human A549 cells; assay type: functional; conditions: read-out: ED50 (the source's name)
HT-29 = assay: Cytotoxicity against human HT29 cells; assay type: functional; conditions: read-out: ED50 (the source's name)
Artemia = assay: Toxicity to brine shrimp; assay type: organism-based; conditions: in vivo
PC-3 = assay: Cytotoxicity against human PC3 cells; assay type: functional; conditions: read-out: ED50 (the source's name)
MCF7 = assay: Cytotoxicity against human MCF7 cells; assay type: functional; conditions: read-out: ED50 (the source's name)

## CCCCCCCCCCCC[C@@H](O)[C@H](O)CC[C@H](O)[C@@H]1CC[C@@H](C[C@H](O)CCCCC[C@@H](O)CC2=C[C@H](C)OC2=O)O1 [ANNOPENTOCIN A]
MIA PaCa-2
  EC50: 0.0358 µg/mL (≈ 0.0584 µM)
A498
  EC50: 0.607 µg/mL (≈ 0.99 µM)
A549
  EC50: 0.171 µg/mL (≈ 0.279 µM)
HT-29
  EC50: 1.63 µg/mL (≈ 2.66 µM)
Artemia
  LC50: 8.9 ppm
PC-3
  EC50: 1.14 µg/mL (≈ 1.86 µM)
MCF7
  EC50: 17.9 µg/mL (≈ 29.3 µM)

## CCCCCCCCCCCC[C@H](O)[C@@H](O)CC[C@H](O)[C@@H]1CC[C@@H](C[C@H](O)CCCCC[C@@H](O)CC2=C[C@H](C)OC2=O)O1 [ANNOPENTOCIN B]
MIA PaCa-2
  EC50: 0.162 µg/mL (≈ 0.264 µM)
A498
  EC50: 0.379 µg/mL (≈ 0.618 µM)
A549
  EC50: 0.0274 µg/mL (≈ 0.0447 µM)
HT-29
  EC50: 1.64 µg/mL (≈ 2.68 µM)
Artemia
  LC50: 11.2 ppm
PC-3
  EC50: 0.212 µg/mL (≈ 0.346 µM)
MCF7
  EC50: 3.56 µg/mL (≈ 5.81 µM)

## CCCCCCCCCCCC[C@H](O)[C@H](O)CC[C@H](O)[C@@H]1CC[C@@H](C[C@H](O)CCCCC[C@@H](O)CC2=C[C@H](C)OC2=O)O1 [ANNOPENTOCIN C]
MIA PaCa-2
  EC50: 0.428 µg/mL (≈ 0.698 µM)
A498
  EC50: 0.258 µg/mL (≈ 0.421 µM)
A549
  EC50: 0.0206 µg/mL (≈ 0.0336 µM)
HT-29
  EC50: 1.24 µg/mL (≈ 2.02 µM)
Artemia
  LC50: 13.8 ppm
PC-3
  EC50: 0.228 µg/mL (≈ 0.372 µM)
MCF7
  EC50: 2.97 µg/mL (≈ 4.85 µM)

## COc1cccc2c1C(=O)c1c(O)c3c(c(O)c1C2=O)C[C@@](O)(C(=O)CO)C[C@@H]3O[C@H]1C[C@H](N)[C@H](O)[C@H](C)O1 [DOXORUBICIN]
MIA PaCa-2
  EC50: 0.00423 µg/mL (≈ 0.00778 µM)
A498
  EC50: 0.0462 µg/mL (≈ 0.085 µM)
A549
  EC50: 0.00428 µg/mL (≈ 0.00787 µM)
HT-29
  EC50: 0.0498 µg/mL (≈ 0.0916 µM)
Artemia
  LC50: 2.57 ×10⁻¹ ppm
PC-3
  EC50: 0.0583 µg/mL (≈ 0.107 µM)
MCF7
  EC50: 0.495 µg/mL (≈ 0.911 µM)
